PubChem BioAssay (NCI)
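Results reflect a 48-hour exposure of cells in 96-well plates to compound at five concentrations. At the GI50, growth is halved. Definition used: TGI = concentration required for complete inhibition of growth.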

Experiments:
Assay in all cases: NCI tumour cell line growth inhibition, 48 h
786-0 renal = tested on: 786-0 renal
IGROV1 ovarian = tested on: IGROV1 ovarian
DU-145 prostate = tested on: DU-145 prostate
HOP-62 NSCLC = tested on: HOP-62 NSCLC
HCT-116 colon = tested on: HCT-116 colon
MOLT-4 leukemia = tested on: MOLT-4 leukemia
UO-31 renal = tested on: UO-31 renal
SN12C renal = tested on: SN12C renal
RXF 393 renal = tested on: RXF 393 renal
KM12 colon = tested on: KM12 colon
CCRF-CEM leukemia = tested on: CCRF-CEM leukemia
PC-3 prostate = tested on: PC-3 prostate
MALME-3M melanoma = tested on: MALME-3M melanoma
U251 CNS = tested on: U251 CNS
SK-MEL-5 melanoma = tested on: SK-MEL-5 melanoma
SK-MEL-2 melanoma = tested on: SK-MEL-2 melanoma
OVCAR-8 ovarian = tested on: OVCAR-8 ovarian
HT29 colon = tested on: HT29 colon
TK-10 renal = tested on: TK-10 renal
CAKI-1 renal = tested on: CAKI-1 renal
MDA-MB-231 breast = tested on: MDA-MB-231 breast
M14 melanoma = tested on: M14 melanoma
T-47D breast = tested on: T-47D breast
UACC-257 melanoma = tested on: UACC-257 melanoma
MDA-MB-435 = tested on: MDA-MB-435
HL-60(TB) leukemia = tested on: HL-60(TB) leukemia
SNB-19 CNS = tested on: SNB-19 CNS
SR leukemia = tested on: SR leukemia
NCI/ADR-RES ovarian = tested on: NCI/ADR-RES ovarian
K-562 leukemia = tested on: K-562 leukemia
HCC-2998 colon = tested on: HCC-2998 colon
COLO 205 colon = tested on: COLO 205 colon
OVCAR-3 ovarian = tested on: OVCAR-3 ovarian
LOX IMVI melanoma = tested on: LOX IMVI melanoma
OVCAR-5 ovarian = tested on: OVCAR-5 ovarian
SNB-75 CNS = tested on: SNB-75 CNS
OVCAR-4 ovarian = tested on: OVCAR-4 ovarian
SF-539 CNS = tested on: SF-539 CNS
NCI-H522 lung = tested on: NCI-H522 lung
SF-268 CNS = tested on: SF-268 CNS
UACC-62 melanoma = tested on: UACC-62 melanoma
NCI-H23 lung = tested on: NCI-H23 lung
HS 578T breast = tested on: HS 578T breast
EKVX NSCLC = tested on: EKVX NSCLC
RPMI-8226 leukemia = tested on: RPMI-8226 leukemia
ACHN renal = tested on: ACHN renal
SW-620 colon = tested on: SW-620 colon
NCI-H460 lung = tested on: NCI-H460 lung
HOP-92 NSCLC = tested on: HOP-92 NSCLC
BT-549 breast = tested on: BT-549 breast
NCI-H226 lung = tested on: NCI-H226 lung
A549 NSCLC = tested on: A549 NSCLC
HCT-15 colon = tested on: HCT-15 colon
MCF7 breast = tested on: MCF7 breast
SK-MEL-28 melanoma = tested on: SK-MEL-28 melanoma
SK-OV-3 ovarian = tested on: SK-OV-3 ovarian
SF-295 CNS = tested on: SF-295 CNS
A498 renal = tested on: A498 renal

## NCCCCCCn1c2c(c3ccccc3c1=O)C(=O)c1ccccc1-2
786-0 renal
  GI50: 603 nM
  TGI: > 100000 nM
IGROV1 ovarian
  GI50: 1070 nM
  TGI: 4310 nM
DU-145 prostate
  GI50: 608 nM
  TGI: > 100000 nM
HOP-62 NSCLC
  GI50: 1280 nM
  TGI: 4500 nM
HCT-116 colon
  GI50: 909 nM
  TGI: 6110 nM
MOLT-4 leukemia
  GI50: 237 nM
  TGI: 972 nM
UO-31 renal
  GI50: 442 nM
  TGI: 1850 nM
SN12C renal
  GI50: 1330 nM
  TGI: 6090 nM
RXF 393 renal
  GI50: 12000 nM
  TGI: 64800 nM
KM12 colon
  GI50: 1380 nM
  TGI: 6900 nM
CCRF-CEM leukemia
  GI50: 512 nM
  TGI: 3210 nM
PC-3 prostate
  GI50: 2120 nM
  TGI: 11800 nM
MALME-3M melanoma
  GI50: 1910 nM
  TGI: 4610 nM
U251 CNS
  GI50: 1430 nM
  TGI: 12300 nM
SK-MEL-5 melanoma
  GI50: 1300 nM
  TGI: 2750 nM
SK-MEL-2 melanoma
  GI50: 1870 nM
  TGI: 3540 nM
OVCAR-8 ovarian
  GI50: 1540 nM
  TGI: 11300 nM
HT29 colon
  GI50: 1200 nM
  TGI: 4420 nM
TK-10 renal
  GI50: 1650 nM
  TGI: 3820 nM
CAKI-1 renal
  GI50: 1960 nM
  TGI: 8250 nM
MDA-MB-231 breast
  GI50: 1980 nM
  TGI: 5460 nM
M14 melanoma
  GI50: 2280 nM
  TGI: 5000 nM
T-47D breast
  GI50: 1850 nM
  TGI: 5930 nM
UACC-257 melanoma
  GI50: 2360 nM
  TGI: 5800 nM
MDA-MB-435
  GI50: 2050 nM
  TGI: 4760 nM
HL-60(TB) leukemia
  GI50: 266 nM
  TGI: 1420 nM
SNB-19 CNS
  GI50: 1190 nM
  TGI: 10100 nM
SR leukemia
  GI50: 349 nM
  TGI: 2090 nM
NCI/ADR-RES ovarian
  GI50: 2460 nM
  TGI: 11700 nM
K-562 leukemia
  GI50: 705 nM
  TGI: 5350 nM
HCC-2998 colon
  GI50: 2250 nM
  TGI: 14300 nM
COLO 205 colon
  GI50: 1600 nM
  TGI: 13700 nM
OVCAR-3 ovarian
  GI50: 1980 nM
  TGI: 6240 nM
LOX IMVI melanoma
  GI50: 1120 nM
  TGI: 2990 nM
OVCAR-5 ovarian
  GI50: 1880 nM
  TGI: 4600 nM
SNB-75 CNS
  GI50: 1750 nM
  TGI: 7720 nM
OVCAR-4 ovarian
  GI50: 2190 nM
  TGI: 7240 nM
SF-539 CNS
  GI50: 1240 nM
  TGI: 3590 nM
NCI-H522 lung
  GI50: 1170 nM
  TGI: 2880 nM
SF-268 CNS
  GI50: 2300 nM
  TGI: 16200 nM
UACC-62 melanoma
  GI50: 1630 nM
  TGI: 3500 nM
NCI-H23 lung
  GI50: 1500 nM
  TGI: 6540 nM
HS 578T breast
  GI50: 2510 nM
  TGI: 11100 nM
EKVX NSCLC
  GI50: 10300 nM
  TGI: 28800 nM
RPMI-8226 leukemia
  GI50: 1530 nM
  TGI: 6070 nM
ACHN renal
  GI50: 526 nM
  TGI: 2710 nM
SW-620 colon
  GI50: 613 nM
  TGI: 3160 nM
NCI-H460 lung
  GI50: 415 nM
  TGI: 11300 nM
HOP-92 NSCLC
  GI50: 2570 nM
  TGI: 16000 nM
BT-549 breast
  GI50: 1800 nM
  TGI: 4730 nM
NCI-H226 lung
  GI50: 1080 nM
  TGI: 3070 nM
A549 NSCLC
  GI50: 1220 nM
  TGI: 25800 nM
HCT-15 colon
  GI50: 717 nM
  TGI: 5860 nM
MCF7 breast
  GI50: 744 nM
  TGI: 3610 nM
SK-MEL-28 melanoma
  GI50: 1900 nM
  TGI: 3760 nM
SK-OV-3 ovarian
  GI50: 720 nM
  TGI: 7420 nM
SF-295 CNS
  GI50: 1470 nM
  TGI: 5560 nM
A498 renal
  GI50: 675 nM
  TGI: 2970 nM
